This experiment deals with Wnt reporter (TCF/LEF1 promoter) in HEK STF293 cells. As to the kind of experiment: HEK STF293 Wnt reporter (luciferase) assay. The class given is cell-based. The settings on record: Homo sapiens, STF/293, Wnt3a-conditioned media, Steady Glo normalized to Cell Titer. The procedure:
Screening with STF293 and SW480STF. HEK STF293 cells are seeded at approximately 25,000-30,000 cells/well in a 96-well (100 uL volume). On the first day, Wnt3a-conditioned media (1:1) will be added along with diluted compounds (1:100). For example, for 100 ul of STF293 cells, 100 ul of Wnt3a-conditioned media and 2 ul of drug will be added to each well. The final concentrations should therefore be 100 μM, 30 μM, 10 μM, 3 μM, 1 μM, 300 nM, 100 nM, 30 nM, 10 nM, 3 nM, 1 nM, and 0.3 nM. On the second day, the media is removed and 75 ul of Passive Lysis Buffer (Promega) is added to each well. The plate will be shaken at 130 rpm for 15 minutes. For the Steady Glo assay, 45 ul of the lysis is removed and added to a white 96-well plate containing 45 uL/well of Steady Glo solution (Promega). For the Cell Titer assay, 25 ul of the lysis is transferred to a white 96-well plate containing 25 ul/well of Cell Titer solution (Promega). Both Steady Glo and Cell Titer assays will be read with a luminescence plate reader. When determining EC50, the Steady Glo values will be divided by the Cell Titer values to normalize for cell number and the resulting values plotted in a dose-response curve.
Experimental. All compounds were tested using the human cell line HEK STF293. This cell line carries a Wnt reporter (TCF/LEF1 promoter), which drives expression of the firefly luciferase protein. The level of Wnt activity is directly correlated with the level of luciferase activity (determined using a simple assay). Compounds that inhibit Wnt signaling by reducing luciferase activity in these two cell lines are further tested biochemically.
Compounds were prepared as 10 mM stocks for each compound in DMSO. Dilutions were prepared in a 96-well plate in DMSO. The stock dilutions are as follows: 10 mM, 1 mM, […]. Plates were sealed and stored at −20 C.
HEK STF293 cells were seeded at approximately 25,000-30,000 cells/well in a 96-well (100 uL volume). On the first day, Wnt3a-conditioned media (1:1) were added along with diluted compounds (1:100). For example, for 100 ul of STF293 cells, 100 ul of Wnt3a-conditioned media and 2 ul of drug was added to each well. The final concentrations should therefore be 100 uM, 10 uM, 1 uM, 100 nM, 10 nM, and 1 nM. On the second day, the media is removed and 75 ul of Passive Lysis Buffer (Promega) is added to each well. The plate is shaken at 130 rpm for 15 minutes. For the Steady Glo assay, 45 ul of the lysis is removed and added to a white 96-well plate containing 45 uL/well of Steady Glo solution (Promega). For the Cell Titer assay, 25 ul of the lysis is transferred to a white 96-well plate containing 25 ul/well of Cell Titer solution (Promega). Both Steady Glo and Cell Titer assays were read with a luminescence plate reader. When determining EC50, the Steady Glo values were divided by the Cell Titer values to normalize for cell number.

The structures appear in SMILES notation. Some results are limits rather than exact numbers.

By EC50 is commonly meant the concentration giving half of the maximal effect.

`Cc1nn(Cc2ccccc2)c(C)c1NC(=O)c1cc2n(n1)C(C(F)(F)F)CC(c1ccccc1)N2` (stereo not drawn): the EC50 was ≤ 0.1 µM.

For `Cc1nn(Cc2ccc(F)cc2)c(C)c1NC(=O)c1cc(-c2ccc(F)cc2)on1`, the EC50 is > 0.1 µM.

For the compound `Cc1nn(Cc2ccccc2)c(C)c1NC(=O)c1cc(-c2ccc(Br)cc2)on1`, the EC50 is ≤ 0.1 µM.

For the compound `COc1ccccc1-c1cc(C(=O)Nc2c(C)nn(Cc3ccc(F)cc3)c2C)no1`, the EC50 was > 0.1 µM.

For `O=C(Nc1ccc(F)cc1)c1ccc(S(=O)(=O)N2CCc3ccccc32)cc1`, the EC50 is > 0.1 µM.

Take `Cc1ccc(NS(=O)(=O)c2ccc(NC(=O)c3n[nH]c4c3CCc3ccccc3-4)cc2)cc1`: the EC50 is > 0.1 µM.

`Cc1ccc(C)c(NS(=O)(=O)c2ccc(NC(=O)c3n[nH]c4c3CCc3ccccc3-4)cc2)c1`: the EC50 is > 0.1 µM.

As for `COc1cc2nc(NC(=O)c3ccc(S(=O)(=O)N(C)c4ccccc4)cc3)sc2cc1OC`, the EC50 is > 0.1 µM.

Regarding `COc1cc2nc(NC(=O)c3ccc(S(=O)(=O)N4CCc5ccccc54)cc3)sc2cc1OC`, the 50% effective concentration (EC50) is > 0.1 µM.

For the compound `O=C(Nc1nc(-c2ccccn2)cs1)c1ccc(S(=O)(=O)N2CCCc3ccccc32)cc1`, the EC50 is ≤ 0.1 µM.

On to `Cc1sc(NC(=O)c2ccc(S(=O)(=O)N3CCc4ccccc43)cc2)nc1-c1ccccc1`, for which the EC50 was > 0.1 µM.

Regarding `NC(=O)c1ccccc1NC(=O)c1ccc(S(=O)(=O)Nc2ccccc2)cc1`, the 50% effective concentration (EC50) was > 0.1 µM.

The values are drawn from US11834446B2, “Methods and compositions useful in treating cancer and reducing Wnt mediated effects in a cell” (StemSynergy Therapeutics, Inc., priority 2009, dated 2023).
